# Source: PubChem BioAssay (NCI)
#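 Assay format: 96-well plates, 48-hour exposure. GI50: concentration for 50% inhibition of growth. TGI denotes the concentration required for complete inhibition of growth.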
# Assays:
# Experiment in all cases: DTP human tumour cell line panel, 48 h
# U251 CNS = tested on: U251 CNS
# SK-OV-3 ovarian = tested on: SK-OV-3 ovarian
# EKVX NSCLC = tested on: EKVX NSCLC
# UACC-62 melanoma = tested on: UACC-62 melanoma
# SK-MEL-2 melanoma = tested on: SK-MEL-2 melanoma
# HCC-2998 colon = tested on: HCC-2998 colon
# TK-10 renal = tested on: TK-10 renal
# MCF7 breast = tested on: MCF7 breast
# CCRF-CEM leukemia = tested on: CCRF-CEM leukemia
# MALME-3M melanoma = tested on: MALME-3M melanoma
# RPMI-8226 leukemia = tested on: RPMI-8226 leukemia
# SNB-19 CNS = tested on: SNB-19 CNS
# HL-60(TB) leukemia = tested on: HL-60(TB) leukemia
# UO-31 renal = tested on: UO-31 renal
# SK-MEL-5 melanoma = tested on: SK-MEL-5 melanoma
# BT-549 breast = tested on: BT-549 breast
# UACC-257 melanoma = tested on: UACC-257 melanoma
# CAKI-1 renal = tested on: CAKI-1 renal
# SW-620 colon = tested on: SW-620 colon
# SF-539 CNS = tested on: SF-539 CNS
# OVCAR-5 ovarian = tested on: OVCAR-5 ovarian
# DU-145 prostate = tested on: DU-145 prostate
# M14 melanoma = tested on: M14 melanoma
# SN12C renal = tested on: SN12C renal
# NCI-H522 lung = tested on: NCI-H522 lung
# MDA-MB-231 breast = tested on: MDA-MB-231 breast
# NCI-H460 lung = tested on: NCI-H460 lung
# HT29 colon = tested on: HT29 colon
# SK-MEL-28 melanoma = tested on: SK-MEL-28 melanoma
# KM12 colon = tested on: KM12 colon
# SF-268 CNS = tested on: SF-268 CNS
# K-562 leukemia = tested on: K-562 leukemia
# 786-0 renal = tested on: 786-0 renal
# OVCAR-3 ovarian = tested on: OVCAR-3 ovarian
# HCT-116 colon = tested on: HCT-116 colon
# ACHN renal = tested on: ACHN renal
# NCI-H23 lung = tested on: NCI-H23 lung
# LOX IMVI melanoma = tested on: LOX IMVI melanoma
# COLO 205 colon = tested on: COLO 205 colon
# A549 NSCLC = tested on: A549 NSCLC
# PC-3 prostate = tested on: PC-3 prostate
# MDA-MB-435 = tested on: MDA-MB-435
# A498 renal = tested on: A498 renal
# OVCAR-8 ovarian = tested on: OVCAR-8 ovarian
# RXF 393 renal = tested on: RXF 393 renal
# HCT-15 colon = tested on: HCT-15 colon
# IGROV1 ovarian = tested on: IGROV1 ovarian
# MOLT-4 leukemia = tested on: MOLT-4 leukemia
# SNB-75 CNS = tested on: SNB-75 CNS
# NCI/ADR-RES ovarian = tested on: NCI/ADR-RES ovarian
# NCI-H226 lung = tested on: NCI-H226 lung
# HS 578T breast = tested on: HS 578T breast
# SF-295 CNS = tested on: SF-295 CNS
# HOP-62 NSCLC = tested on: HOP-62 NSCLC
# T-47D breast = tested on: T-47D breast
# OVCAR-4 ovarian = tested on: OVCAR-4 ovarian
compound,measurement,setting,value
CC(C)(C)[Si](C)(C)OCCC1CC2(S(=O)(=O)C3=CC=C=C=C3)ON1CC2S(=O)(=O)c1ccccc1 (stereo unspecified),TGI,U251 CNS,> 100 µM
same,TGI,SK-OV-3 ovarian,> 100 µM
O=c1[nH]c2cc3[nH]c(=O)c(=O)[nH]c3cc2[nH]c1=O,TGI,EKVX NSCLC,> 100 µM
same,TGI,UACC-62 melanoma,> 100 µM
same,TGI,SK-MEL-2 melanoma,> 100 µM
same,TGI,HCC-2998 colon,> 100 µM
same,TGI,TK-10 renal,> 100 µM
same,TGI,MCF7 breast,> 100 µM
same,TGI,CCRF-CEM leukemia,> 100 µM
same,TGI,MALME-3M melanoma,> 100 µM
same,TGI,RPMI-8226 leukemia,> 100 µM
same,TGI,SNB-19 CNS,> 100 µM
same,TGI,HL-60(TB) leukemia,> 100 µM
same,TGI,UO-31 renal,> 100 µM
same,TGI,SK-MEL-5 melanoma,> 100 µM
same,TGI,BT-549 breast,> 100 µM
same,TGI,UACC-257 melanoma,> 100 µM
same,TGI,CAKI-1 renal,> 100 µM
same,TGI,U251 CNS,> 100 µM
same,TGI,SW-620 colon,> 100 µM
same,TGI,SF-539 CNS,> 100 µM
same,TGI,OVCAR-5 ovarian,> 100 µM
same,TGI,DU-145 prostate,> 100 µM
same,TGI,M14 melanoma,> 100 µM
same,TGI,SN12C renal,> 100 µM
same,TGI,NCI-H522 lung,> 100 µM
same,TGI,MDA-MB-231 breast,> 100 µM
same,TGI,NCI-H460 lung,> 100 µM
same,TGI,HT29 colon,> 100 µM
same,TGI,SK-MEL-28 melanoma,> 100 µM
same,TGI,KM12 colon,> 100 µM
same,TGI,SF-268 CNS,> 100 µM
same,TGI,K-562 leukemia,> 100 µM
same,TGI,786-0 renal,> 100 µM
same,TGI,OVCAR-3 ovarian,> 100 µM
same,TGI,HCT-116 colon,> 100 µM
same,TGI,ACHN renal,> 100 µM
same,TGI,NCI-H23 lung,> 100 µM
same,TGI,SK-OV-3 ovarian,> 100 µM
same,TGI,LOX IMVI melanoma,> 100 µM
same,TGI,COLO 205 colon,> 100 µM
same,TGI,A549 NSCLC,> 100 µM
same,TGI,PC-3 prostate,> 100 µM
same,TGI,MDA-MB-435,> 100 µM
same,TGI,A498 renal,> 100 µM
same,TGI,OVCAR-8 ovarian,> 100 µM
same,TGI,RXF 393 renal,> 100 µM
same,TGI,HCT-15 colon,> 100 µM
same,TGI,IGROV1 ovarian,> 100 µM
same,TGI,MOLT-4 leukemia,> 100 µM
same,TGI,SNB-75 CNS,> 100 µM
same,TGI,NCI/ADR-RES ovarian,> 100 µM
same,TGI,NCI-H226 lung,> 100 µM
same,TGI,HS 578T breast,> 100 µM
same,TGI,SF-295 CNS,> 100 µM
NC(=NCCO)c1ccc(N2CCCN(c3ccc(C(N)=NCCO)cc3)CC2)cc1,GI50,UACC-62 melanoma,> 100 µM
same,TGI,UACC-62 melanoma,> 100 µM
same,GI50,HCC-2998 colon,> 100 µM
same,TGI,HCC-2998 colon,> 100 µM
same,GI50,TK-10 renal,> 100 µM
same,TGI,TK-10 renal,> 100 µM
same,GI50,MALME-3M melanoma,72.9 µM
same,TGI,MALME-3M melanoma,> 100 µM
same,GI50,SNB-19 CNS,> 100 µM
same,TGI,SNB-19 CNS,> 100 µM
same,GI50,HOP-62 NSCLC,91.7 µM
same,TGI,HOP-62 NSCLC,> 100 µM
same,GI50,UACC-257 melanoma,> 100 µM
same,TGI,UACC-257 melanoma,> 100 µM
same,GI50,CAKI-1 renal,> 100 µM
same,TGI,CAKI-1 renal,> 100 µM
same,GI50,U251 CNS,> 100 µM
same,TGI,U251 CNS,> 100 µM
same,GI50,OVCAR-5 ovarian,> 100 µM
same,TGI,OVCAR-5 ovarian,> 100 µM
same,GI50,M14 melanoma,> 100 µM
same,TGI,M14 melanoma,> 100 µM
same,GI50,SN12C renal,8.8 µM
same,TGI,SN12C renal,> 100 µM
same,GI50,MDA-MB-231 breast,> 100 µM
same,TGI,MDA-MB-231 breast,> 100 µM
same,GI50,HT29 colon,> 100 µM
same,TGI,HT29 colon,> 100 µM
same,GI50,SK-MEL-28 melanoma,> 100 µM
same,TGI,SK-MEL-28 melanoma,> 100 µM
same,GI50,KM12 colon,> 100 µM
same,TGI,KM12 colon,> 100 µM
same,GI50,T-47D breast,> 100 µM
same,TGI,T-47D breast,> 100 µM
same,GI50,OVCAR-4 ovarian,> 100 µM
same,TGI,OVCAR-4 ovarian,> 100 µM
same,GI50,786-0 renal,> 100 µM
same,TGI,786-0 renal,> 100 µM
same,GI50,OVCAR-3 ovarian,> 100 µM
same,TGI,OVCAR-3 ovarian,> 100 µM
same,GI50,HCT-116 colon,> 100 µM
same,TGI,HCT-116 colon,> 100 µM
same,GI50,ACHN renal,> 100 µM
same,TGI,ACHN renal,> 100 µM
same,GI50,NCI-H23 lung,> 100 µM
same,TGI,NCI-H23 lung,> 100 µM
same,GI50,LOX IMVI melanoma,> 100 µM
same,TGI,LOX IMVI melanoma,> 100 µM
same,GI50,COLO 205 colon,> 100 µM
same,TGI,COLO 205 colon,> 100 µM
same,GI50,A549 NSCLC,98.3 µM
same,TGI,A549 NSCLC,> 100 µM
same,GI50,MDA-MB-435,> 100 µM
same,TGI,MDA-MB-435,> 100 µM
same,GI50,OVCAR-8 ovarian,> 100 µM
same,TGI,OVCAR-8 ovarian,> 100 µM
same,GI50,HCT-15 colon,> 100 µM
same,TGI,HCT-15 colon,> 100 µM
same,GI50,SNB-75 CNS,> 100 µM
same,TGI,SNB-75 CNS,> 100 µM
same,GI50,NCI/ADR-RES ovarian,> 100 µM
same,TGI,NCI/ADR-RES ovarian,> 100 µM
same,GI50,NCI-H226 lung,> 100 µM
same,TGI,NCI-H226 lung,> 100 µM
same,GI50,SF-295 CNS,> 100 µM
same,TGI,SF-295 CNS,> 100 µM
